Assay results: US10030064B2, “Mammalian cell culture processes for protein production” (priority 2009, dated 2018)
Like-named read-outs stand apart in the source and are kept apart here.

How the values were obtained:
[1] = test system: purified IgG-fusion proteins; conditions: Tris-acetate buffer pH 7.5, 37° C., 1 h
Method: Reduced glutathione (GSH) at 0, 1 and 3 mM final concentrations was added to Tris-acetate buffered (pH 7.5) solution of purified IgG-fusion proteins, and the mixture of GSH and proteins was incubated at 37° C. for 1 h before SEC-HPLC analysis.
SEC analysis was performed according to the previously published method (Perico et al., 2008) with some modifications. Briefly, the Protein-A purified samples were run on an Agilent 1100 HPLC system (Agilent Technologies, Inc., Palo Alto, Calif.) on Tosoh Bioscience TSK-Gel G3000 SWxl column (7.8 ID×30 cm, 5 μm particles). The mobile phase contained 1× Phosphate Buffered Saline (PBS) at pH 7.4. The flow rate was 0.5 mL/min, and column temperature was controlled at 25° C. The signal was monitored by absorbance at wavelength of 280 nm.
To determine if GSH itself could affect protein aggregation by directly interacting with the proteins, we did in vitro study by adding GSH to Protein-A purified IgG-fusion proteins that were reconstituted in Tris-acetate buffer, and analyzed SEC profiles.

CHO cells [2] = assay: Shake flask CHO culture in serum free medium: viable cell density, viability, growth rate, productivity (Example 3); assay type: cell-based, Chinese hamster; conditions: for final viability: over 0.1 to 10 μM; for Final VCD / Peak VCD / Viability (final, day 10): added two days after inoculation
Method: The CHO cell line used in this study was subcloned from DG44 parental cells and cultured in a proprietary chemically-defined growth medium.
The experiments were carried out in 250-mL shake flasks (VWR international) with starting volumes of 100 mL and initial cell densities of 6×10^5 cells/mL. The cultures were placed on a shaker platform (VWR international) at 150 rpm and maintained at 37° C. and 6% CO2 for ten days. The cultures were sampled daily and the pH adjustment using 1M sodium carbonate, and fed with glucose and glutamine every two days in order to maintain them at certain levels. Cell density and viability were measured off-line a Bioprofile Analyzer 400 (Nova Biomedical Corporation, Waltham, Mass.).
The eluted protein was quantified using a 10-level standard curve.

glutathione reductase = assay: Western blot of glutathione reductase in CHO cells; assay type: cell-based, Chinese hamster; conditions: 1 μM RU-486 added one day before 0.1 μM DEX
Method: After being washed with 1×PBS, approximately 10^7 CHO cells were lysed with 1 mL of Laemmli sample buffer (Bio-Rad Laboratories) and denatured at 90° C. for 5 minutes. The whole cell lysates were separated on a 4-15% SDS-polyacrylamide gel, blotted to 0.45 μm nitrocellulose membranes (Bio-Rad Laboratories), and probed with primary antibodies and secondary antibody. The primary antibody for detection of glutathione reductase was the monoclonal antibody raised against amino acids 391-510 mapping near the C-terminus of glutathione reductase of human origin (Santa Cruz Biotechnology, Santa Cruz, Calif.). […] The primary antibody used for detection of glucocorticoid receptor was anti-human monoclonal antibody (Santa Cruz Biotechnology, Santa Cruz, Calif.). The secondary antibody was horseradish peroxidase (HRP)-conjugated anti-mouse antibody (Santa Cruz Biotechnology, Santa Cruz, Calif.). Membranes were stripped and re-probed with β-actin antibody (Santa Cruz Biotechnology) and HRP-conjugated secondary antibody. Immunodetection was performed with the enhanced chemiluminescence Western blotting detection system (GE Healthcare) and visualized with VersaDoc Imaging System (Bio-Rad Laboratories).
A Western Blot was performed to detect glutathione reductase expression in the whole cell lysates prepared from the CHO cells treated with various concentrations of DEX. […]

CHO cells [3] = assay: Preliminary experiment: RU-486 on CHO cell viability, growth and metabolic parameters; assay type: cell-based, Chinese hamster
Text: RU-486 is a GR antagonist and often used as a tool drug in many GR related studies.

GILZ = assay: Western blot of GILZ protein in CHO cells; assay type: cell-based, Chinese hamster; conditions: in the presence of 1 μM RU-486
Method: Approximately 10^7 CHO cells were washed with 1× phosphate buffered saline (PBS) solution, lysed with 1 mL of Laemmli sample buffer (Bio-Rad Laboratories, Hercules, Calif.), and then denatured at 90° C. for 5 minutes. […] Membranes were stripped and re-probed with β-actin antibody (Santa Cruz Biotechnology) and an HRP-conjugated anti-mouse secondary antibody. Immunodetection was performed with the enhanced chemiluminescence Western blotting detection system (GE Healthcare UK Limited Little Chalfont, Buckinghamshire, UK) and visualized with a VersaDoc Imaging System (Bio-Rad Laboratories, Hercules, Calif.).
The blot was also reprobed with the beta-actin antibody as a control to assess equivalent gel loading.

SMILES	reduction rate of percentage of high molecular weight species ([1]; 1 mM GSH) [%]	reduction rate of percentage of high molecular weight species ([1]; 3 mM GSH) [%]	final viability (CHO cells [2])	Final VCD (CHO cells [2]; treatment concentration 0.1 μM)	Peak VCD (CHO cells [2]; treatment concentration 0.1 μM)	Viability (final, day 10) (CHO cells [2]; treatment concentration 0.1 μM) [%]	Final VCD (CHO cells [2]; treatment concentration 1 μM)	Peak VCD (CHO cells [2]; treatment concentration 1 μM)	Viability (final, day 10) (CHO cells [2]; treatment concentration 1 μM) [%]	Final VCD (CHO cells [2]; treatment concentration 10 μM)	Peak VCD (CHO cells [2]; treatment concentration 10 μM)	Viability (final, day 10) (CHO cells [2]; treatment concentration 10 μM) [%]	up-regulatory effect of DEX on glutathione reductase expression (glutathione reductase)	effect on cell viability and cell growth rate (CHO cells [3]; RU-486 at 10 μM)	effect on CHO cell viability and metabolic parameters (CHO cells [3]; RU-486 concentrations not higher than 1 μM)	DEX-induced overexpression of GILZ protein (GILZ)
N[C@@H](CCC(=O)N[C@@H](CS)C(=O)NCC(=O)O)C(=O)O [GSH, Reduced glutathione]	15.3	27.3	–	–	–	–	–	–	–	–	–	–	–	–	–	–
C[C@]12CCC(=O)C=C1CC[C@@H]1[C@@H]2[C@@H](O)C[C@@]2(C)[C@H]1CC[C@]2(O)C(=O)CO [HYC, hydrocortisone]	–	–	60.1-75.5%	7.86 ×10^6 cells/mL	10.06 ×10^6 cells/mL	60.1	8.15 ×10^6 cells/mL	9.51 ×10^6 cells/mL	65.1	7.80 ×10^6 cells/mL	8.44 ×10^6 cells/mL	75.5	–	–	–	–
C[C@]12C=CC(=O)C=C1CC[C@@H]1[C@@H]2[C@@H](O)C[C@@]2(C)[C@H]1CC[C@]2(O)C(=O)CO [PRD, prednisolone]	–	–	69.4-75.5%	8.26 ×10^6 cells/mL	8.99 ×10^6 cells/mL	69.4	8.79 ×10^6 cells/mL	9.25 ×10^6 cells/mL	76.8	8.27 ×10^6 cells/mL	8.05 ×10^6 cells/mL	77.5	–	–	–	–
CC#C[C@]1(O)CC[C@H]2[C@@H]3CCC4=CC(=O)CCC4=C3[C@@H](c3ccc(N(C)C)cc3)C[C@@]21C [RU-486, mifepristone]	–	–	–	–	–	–	–	–	–	–	–	–	attenuated	significant decrease	did not affect	significantly decreased
